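Exposure lasted 48 hours, with cells grown in 96-well plates and compounds tested at five concentrations. Here, GI50 denotes the concentration required for 50% inhibition of growth. TGI denotes the concentration required for complete inhibition of growth.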
Tests used:
Experiment in all cases: growth of human tumour cells (NCI), 48 h; in the data active = GI50 below about 0.43 µM; inactive = the rest
[1] = tested on: HCC-2998 colon
[2] = tested on: MDA-MB-435
[3] = tested on: SW-620 colon
[4] = tested on: OVCAR-4 ovarian
[5] = tested on: OVCAR-3 ovarian
[6] = tested on: UO-31 renal
[7] = tested on: MCF7 breast
[8] = tested on: MOLT-4 leukemia
[9] = tested on: HCT-116 colon
[10] = tested on: OVCAR-8 ovarian
[11] = tested on: M14 melanoma
[12] = tested on: BT-549 breast
[13] = tested on: UACC-62 melanoma
[14] = tested on: HT29 colon
[15] = tested on: SK-MEL-28 melanoma
[16] = tested on: COLO 205 colon
[17] = tested on: CAKI-1 renal
[18] = tested on: MDA-MB-231 breast
[19] = tested on: SK-MEL-5 melanoma
[20] = tested on: DU-145 prostate
[21] = tested on: HOP-62 NSCLC
[22] = tested on: IGROV1 ovarian
[23] = tested on: HS 578T breast
[24] = tested on: SF-539 CNS
[25] = tested on: OVCAR-5 ovarian
[26] = tested on: K-562 leukemia
[27] = tested on: ACHN renal
[28] = tested on: RXF 393 renal
[29] = tested on: UACC-257 melanoma
[30] = tested on: SF-295 CNS
[31] = tested on: NCI/ADR-RES ovarian
[32] = tested on: U251 CNS
[33] = tested on: A549 NSCLC
[34] = tested on: SK-OV-3 ovarian
[35] = tested on: KM12 colon
[36] = tested on: SN12C renal
[37] = tested on: CCRF-CEM leukemia
[38] = tested on: NCI-H23 lung
[39] = tested on: SNB-75 CNS
[40] = tested on: RPMI-8226 leukemia
[41] = tested on: SR leukemia
[42] = tested on: HOP-92 NSCLC
[43] = tested on: SF-268 CNS
[44] = tested on: HCT-15 colon
[45] = tested on: NCI-H522 lung
[46] = tested on: TK-10 renal
[47] = tested on: HL-60(TB) leukemia
[48] = tested on: NCI-H460 lung
[49] = tested on: 786-0 renal
[50] = tested on: T-47D breast
[51] = tested on: MALME-3M melanoma
[52] = tested on: A498 renal
[53] = tested on: NCI-H226 lung
[54] = tested on: SNB-19 CNS
[55] = tested on: LOX IMVI melanoma
[56] = tested on: EKVX NSCLC

O=C(Nc1nc(-c2ccc(Cl)cc2)cs1)c1cc(O)c(O)c(O)c1
881 µM: TGI [19]
922 µM: TGI [9]
138 µM: TGI [45]
3480 µM: TGI [52]
840 µM: TGI [8]
3420 µM: TGI [34]
3780 µM: TGI [36]
939 µM: TGI [22]
660 µM: TGI [17]
964 µM: TGI [48]
1060 µM: TGI [41]
3030 µM: TGI [38]
3990 µM: TGI [39]
2250 µM: TGI [14]
1880 µM: TGI [21]
4610 µM: TGI [11]
2980 µM: TGI [2] | TGI [51]
1680 µM: TGI [40]
843 µM: TGI [24]
760 µM: TGI [37]
569 µM: TGI [6]
1050 µM: TGI [42]
3280 µM: TGI [30]
inactive: GI50 [1] 700 µM | GI50 [2] 266 µM | GI50 [3] 168 µM | GI50 [4] 142 µM | GI50 [5] 245 µM | GI50 [6] 50.6 µM | GI50 [7] 349 µM | GI50 [8] 130 µM | GI50 [9] 195 µM | GI50 [10] 150 µM | GI50 [11] 244 µM | GI50 [12] 252 µM | GI50 [13] 158 µM | GI50 [14] 572 µM | GI50 [15] 303 µM | GI50 [16] 584 µM | GI50 [17] 115 µM | GI50 [18] 141 µM | GI50 [19] 194 µM | GI50 [20] 247 µM | GI50 [21] 255 µM | GI50 [22] 183 µM | GI50 [23] 479 µM | GI50 [24] 173 µM | GI50 [25] 915 µM | GI50 [26] 167 µM | GI50 [27] 113 µM | GI50 [28] 166 µM | GI50 [29] 278 µM | GI50 [30] 544 µM | GI50 [31] 183 µM | GI50 [32] 156 µM | GI50 [33] 276 µM | GI50 [34] 538 µM | GI50 [35] 315 µM | GI50 [36] 172 µM | GI50 [37] 79 µM | GI50 [38] 292 µM | GI50 [39] 162 µM | GI50 [40] 197 µM | GI50 [41] 96.3 µM | GI50 [42] 115 µM | GI50 [43] 146 µM | GI50 [44] 150 µM | GI50 [45] 21.4 µM | GI50 [46] 207 µM | GI50 [47] 176 µM | GI50 [48] 181 µM | GI50 [49] 218 µM | GI50 [50] 125 µM | GI50 [51] 266 µM | GI50 [52] 927 µM | GI50 [53] 663 µM | GI50 [54] 144 µM | GI50 [55] 174 µM
1810 µM: TGI [16]
1080 µM: TGI [5]
2570 µM: TGI [53]
1200 µM: TGI [32]
1470 µM: TGI [46]
1460 µM: TGI [35]
2490 µM: TGI [4] | TGI [29]
1870 µM: TGI [12]
810 µM: TGI [55]
> 5000 µM: TGI [3] | TGI [7] | TGI [10] | TGI [15] | TGI [23] | TGI [25] | TGI [26] | TGI [31] | TGI [33] | TGI [44] | TGI [54]
3150 µM: TGI [18]
923 µM: TGI [28]
671 µM: TGI [50]
1400 µM: TGI [43]
1020 µM: TGI [49]
907 µM: TGI [47]
1840 µM: TGI [20]
2080 µM: TGI [1]
1140 µM: TGI [27]
958 µM: TGI [13]

C/C(=C\COP(=O)(O)OP(=O)(O)O)CCCCCCOCc1ccccc1
> 100 µM: TGI [1] | TGI [2] | TGI [3] | TGI [4] | TGI [56] | TGI [5] | TGI [6] | TGI [7] | TGI [8] | TGI [9] | TGI [10] | TGI [11] | TGI [12] | TGI [13] | TGI [14] | TGI [15] | TGI [16] | TGI [17] | TGI [18] | TGI [19] | TGI [20] | TGI [21] | TGI [22] | TGI [23] | TGI [24] | TGI [25] | TGI [26] | TGI [27] | TGI [28] | TGI [29] | TGI [30] | TGI [31] | TGI [32] | TGI [33] | TGI [34] | TGI [35] | TGI [36] | TGI [37] | TGI [38] | TGI [39] | TGI [40] | TGI [41] | TGI [42] | TGI [43] | TGI [44] | TGI [45] | TGI [46] | TGI [47] | TGI [48] | TGI [49] | TGI [50] | TGI [51] | TGI [52] | TGI [53] | TGI [54] | TGI [55]
